Positions count from the first letter of the chain named.
Experiments:
AR T877A [1] = biological target: T1, AR T877A (Homo sapiens, UniProt P10275, T878A); test: Transcription assay (ARE-luciferase reporter) in CV-1 cells, AR T877A; format: cell-based; set-up: expressed in transfected cells; host or cells: CV-1; settings: for Antagonist efficacy (RLU value at IC50), AR T877A: in competition with 10 nM DHT
T1 sequence (P10275 1-920 T878A): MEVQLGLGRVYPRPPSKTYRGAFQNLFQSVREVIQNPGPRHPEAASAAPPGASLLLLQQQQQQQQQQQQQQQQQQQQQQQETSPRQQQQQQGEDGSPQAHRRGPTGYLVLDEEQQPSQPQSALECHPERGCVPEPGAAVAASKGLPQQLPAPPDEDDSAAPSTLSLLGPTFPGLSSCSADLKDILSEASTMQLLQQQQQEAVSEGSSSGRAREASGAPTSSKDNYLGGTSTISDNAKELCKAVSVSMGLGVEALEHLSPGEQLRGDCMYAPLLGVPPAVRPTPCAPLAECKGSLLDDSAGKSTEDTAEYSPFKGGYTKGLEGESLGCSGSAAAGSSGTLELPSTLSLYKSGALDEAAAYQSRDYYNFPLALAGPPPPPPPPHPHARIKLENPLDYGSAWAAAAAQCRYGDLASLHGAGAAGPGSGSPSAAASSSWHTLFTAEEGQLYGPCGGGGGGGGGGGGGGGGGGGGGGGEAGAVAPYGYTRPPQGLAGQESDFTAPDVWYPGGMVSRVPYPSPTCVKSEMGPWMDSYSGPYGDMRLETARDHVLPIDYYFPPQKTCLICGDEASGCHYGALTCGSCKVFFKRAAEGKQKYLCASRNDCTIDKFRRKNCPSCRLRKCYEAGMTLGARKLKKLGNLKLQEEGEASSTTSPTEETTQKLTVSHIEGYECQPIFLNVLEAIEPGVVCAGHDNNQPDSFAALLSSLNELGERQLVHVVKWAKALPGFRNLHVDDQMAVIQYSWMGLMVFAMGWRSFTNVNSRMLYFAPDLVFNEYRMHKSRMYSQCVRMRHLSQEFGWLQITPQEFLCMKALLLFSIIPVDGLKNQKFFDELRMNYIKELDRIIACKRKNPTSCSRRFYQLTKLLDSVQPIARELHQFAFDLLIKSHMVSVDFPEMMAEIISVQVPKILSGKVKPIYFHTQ
Protocol: Twenty-four hours prior to transfection, CV-1 cells were seeded at a density of 45,000 cells per well in 24-well cell culture plates and grown in phenol red free Dulbecco's Modified Eagle Medium (DMEM) supplemented with 10% cosmic calf serum (COS). ARE-luciferase reporter and Renilla-Luc as the internal standard and a prokaryotic expression vector encoding the wild-type androgen receptor or mutant androgen receptor were transfected with Lipofectamine (Invitrogen) following manufacturer's protocol. Five hours after transfection, media was added containing the appropriate concentrations of ligands. The cells were allowed to incubate for 38 hours before harvesting by passive lysis buffer. Cell extracts were immediately assayed using the Dual Luciferase Assay (Promega) with a Perkin-Elmer Microbeta Luminometer. […] Dose-response data was analyzed by nonlinear regression analysis using GraphPad Prism.

AR T877A [2] = biological target: T1, AR T877A; test: Competitive binding assay, [3H]DHT, transfected COS-7 cells, AR T877A; set-up: expressed in transfected cells; host or cells: COS-7; settings: 14 nM [3H]-DHT, read-out: Binding affinity (Ki), AR T877A
Protocol: (§1) Twenty-four hours prior to transfection, COS-7 cells were seeded at a density of 70,000 cells per well in 24-well cell culture plates and grown in phenol red free Dulbecco's Modified Eagle Medium (DMEM) supplement with 10% cosmic calf serum (CCS). The cells were transfected with a prokaryotic expression vector encoding the wild-type androgen receptor or mutant androgen receptor using Lipofectamine (Invitrogen) following manufacturer's protocol. […] Cells were washed with PBS and harvested in 2% SDS, 10% glycerol, and 10 mM Tris, pH 6.8, and radioactivity determined by scintillation counting.

AR W741C = biological target: T2, AR W741C (Homo sapiens, UniProt P10275, W742C); test: Competitive binding assay, [3H]DHT, transfected COS-7 cells, AR W741C; set-up: expressed in transfected cells; host or cells: COS-7; settings: 75 nM [3H]-DHT, read-out: Binding affinity (Ki), AR W741C
T2 sequence (P10275 1-920 W742C): T1 sequence (P10275 1-920 T878A) with W742C, A878T
Protocol: as §1

| SMILES | IC50 (AR T877A [1]) [µM] | Antagonist efficacy (RLU value at IC50), AR T877A (AR T877A [1]) | Ki (AR T877A [2]) [µM] | Ki (AR W741C) [µM] |
| --- | --- | --- | --- | --- |
| CN(C)CCCOc1cccc(Cc2ccccc2S(=O)(=O)CC(C)(O)C(=O)Nc2ccc(C#N)c(C(F)(F)F)c2)c1 (centres unmarked) [PAN22] | 1.8 ± 0.3 | (53% ± 3.8%) | 1.75 | 9.8 |
| CC(O)(CS(=O)(=O)c1ccccc1-c1ccccc1O)C(=O)Nc1ccc(C#N)c(C(F)(F)F)c1 (centres unmarked) [PAN41, N-(4-cyano-3-(trifluoromethyl)phenyl)-2-hydroxy-3-(2′-hydroxybiphenyl-2-ylsulfonyl)-2-methylpropanamide] | 3.9 ± 1.9 | (53% ± 10%) |  |  |
| CN(C)CCCOc1cccc(-c2ccccc2S(=O)(=O)CC(C)(O)C(=O)Nc2ccc(C#N)c(C(F)(F)F)c2)c1 (centres unmarked) [PAN52] | 4 ± 2.2 | (52% ± 2.5%) | 4.13 | 7.3 |
| CN(C)CCCOc1ccc(-c2ccccc2S(=O)(=O)CC(C)(O)C(=O)Nc2ccc(C#N)c(C(F)(F)F)c2)cc1 (centres unmarked) [PAN62] | 5 ± 3.2 | (56% ± 5.9%) | 4.3 | 2.62 |

Source: patent US8450374B2, “Pan-antagonists for the androgen receptor and androgen receptor mutants associated with anti-androgen withdrawal” (priority 2009, dated 2013)
